Laboratory results taken from patent US12098411B2, “Exogenous ketone blend compositions for delivery of ketone bodies” (KetoneAid, Inc., priority 2016, dated 2024).
Where two headings read alike, the source gives them in different places.

What was measured:
[1] = cited from earlier work
[2] = Ketone blood concentration after ingestion of 1,3-butanediol (FIG. 5, FIG. 6); type: in vivo, human
Text: FIG. 5 depicts an exemplary ketone blood concentration after ingestion of racemic 1,3-butanediol.
FIG. 6 depicts a ketone blood concentration after one person ingested (D)-1,3-butanediol, compared to the results of two people ingesting racemic 1,3-butanediol.
It should also be noted that only the D enantiomer is active in the body as a source of extracellular fuel that is then transported into the cells. Ketone blood level meters currently on the market only measure the blood level of the D enantiomer. Products containing racemic salts require two to three times the amount of sodium, calcium and potassium for an equal amount of (D)-β-hydroxybutyrate. A reason the potential levels of (D)-β-hydroxybutyrate in the blood is over double compared with an equal amount of the racemic solutions is because the body has to waste energy and uses up some of the (D)-β-hydroxybutyrate to burn off the unnatural (L)-β-hydroxybutyrate.
FIG. 5 depicts exemplary results from ingestion of 33 ml racemic 1,3-butanediol. […] For example, as shown, 33 ml of the non-racemic (D) form provided an increase in ketones of approximately 3.2 mmol/L whereas the racemic form provided approximately 0.9-1.0 mmol/L increases over pre consumption ketone levels.

[3] = system: pyruvate dehydrogenase impairment; test: Relief of fatigue and cognitive impairment in persons suffering with ALS; type: in vivo, human
Text: Persons suffering with ALS display chronic fatigue and chronic cognitive impairment. The mechanism of impairment has been traced to an impairment with pyruvate dehydrogenase in the mitochondria. Cells of the central nervous system, the heart and skeletal muscles, due to the impairment, lack the critical energy or ATP to function normally. (D)-β-hydroxybutyrate circumvents the pyruvate dehydrogenase impairment and provides for far higher energy and ATP creation in those cells. […] The dosing regimen should be between 5-60 grams 1-3 times per day with the preferred amount to be between 20-40 grams 3 times per day.

CC(O)CC(=O)[O-].[K+] (racemic) [racemic potassium β-hydroxybutyrate, potassium β-hydroxybutyrate]
blood ketones reachable ([1]; consumed at about 100% of potassium's RDA): approximately 0.5 mmol/L

CC(O)CC(=O)[O-].[Na+] (racemic) [racemic sodium β-hydroxybutyrate, sodium β-hydroxybutyrate]
blood ketones reachable ([1]; consumed at about 100-200% of the RDA for sodium): approximately 0.5 mmol/L

CC(O)CCO (centres unmarked) [(D)-1,3-butanediol]
amount of ketones (mmol) in the blood relative to racemic 1,3-butanediol ([2]; 33 ml each, over a 120 minute period): over double | increase in ketones over pre consumption ketone levels ([2]; ingestion of 33 ml): approximately 3.2 mmol/L

C[C@@H](O)CC(=O)O [(D)-β-hydroxybutyrate]
time to significant reduction of fatigue and cognitive impairment after ingestion [3]: ≤ 15 min
